From US12398127B2, “Thyroid hormone receptor beta agonist compounds” (Terns Pharmaceuticals, Inc., priority 2019, dated 2025)

Assays:
TR beta-LBD = target: T1, TR beta-LBD (Homo sapiens, UniProt P10828); assay: LanthaScreen TR-FRET Thyroid Receptor beta Coactivator Assay; format: biochemical; conditions: for THRβ-Selectivity: THR beta over THR alpha, derived from T3-selectivity normalized data; for EC50: TR-FRET coactivator recruitment, 2 hour incubation at room temperature, run in duplicate multiple times, average data reported, read-out: EC50 THRβ-FRET
T1 construct: TR alpha-LBD (0.4 nM final concentration) or TR beta-LBD (1.0 nM final concentration) was added; purchased ThermoFisher
T1 sequence (P10828 217-461 limits assumed): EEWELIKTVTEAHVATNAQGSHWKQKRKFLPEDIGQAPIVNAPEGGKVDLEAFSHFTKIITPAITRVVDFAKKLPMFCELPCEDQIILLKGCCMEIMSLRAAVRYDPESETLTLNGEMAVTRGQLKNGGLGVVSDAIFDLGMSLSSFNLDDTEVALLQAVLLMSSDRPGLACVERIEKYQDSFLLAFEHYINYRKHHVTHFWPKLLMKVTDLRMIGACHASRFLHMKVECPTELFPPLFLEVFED
Description: (§1) LanthaScreen™ TR-FRET Thyroid Receptor alpha Coactivator Assay kit (ThermoFisher) and LanthaScreen™ TR-FRET Thyroid Receptor beta Coactivator Assay kit (ThermoFisher) were used for agonist compound screening. Compounds in DMSO were diluted using ECHO Liquid Handler (Labcyte Inc.) into 384 plates in 10-point 3-fold series in duplicate (5 micro M final top concentration). Buffer C (ThermoFisher) was added to each well before the 4×mixture of fluorescein-SCR2-2 coactivator (200 nM final concentration), Terbium-labeled anti-GST antibody (2 nM final concentration), and TR alpha-LBD (0.4 nM final concentration) or TR beta-LBD (1.0 nM final concentration) was added. After 2 hour incubation at room temperature in dark, the TR-FRET signal was measured on an EnVision plate reader (PerkinElmer) with excitation at 340 nm and dual emission readout at 495 and 520 nm with the delay time of 100 micro second and the integration time of 200 micro second. The ratio of emission signal at 520 and at 495 was used to calculate EC50 using GraphPad Prism (GraphPad Software). In every batch of compound screening, T3 (L-3,3′,5-Triiodothyronine sodium salt, >95%) (Calbiochem) was used as reference compound. The EC50 of T3 measured were within 3-fold of the reference value provided by the assay kit manufacturer (ThermoFisher Scientific). The Z′ factors measured in every batch of screening using T3 as high percent effect (HPE) control and 0.5% DMSO as zero percent effect (ZPE) control were in the range of 0.5 to 0.8. Compounds' THR-beta selectivity values are derived from T3-selectivity normalized data.

TR alpha-LBD = target: T2, TR alpha-LBD (Homo sapiens, UniProt P10827); assay: LanthaScreen TR-FRET Thyroid Receptor alpha Coactivator Assay; format: biochemical; conditions: TR-FRET coactivator recruitment, 2 hour incubation at room temperature; run in duplicate multiple times, average data reported; read-out: EC50 THRα-FRET
T2 construct: TR alpha-LBD (0.4 nM final concentration) or TR beta-LBD (1.0 nM final concentration) was added; purchased ThermoFisher
T2 sequence (P10827 163-410 isoform P10827-2 limits assumed, other chains not shown): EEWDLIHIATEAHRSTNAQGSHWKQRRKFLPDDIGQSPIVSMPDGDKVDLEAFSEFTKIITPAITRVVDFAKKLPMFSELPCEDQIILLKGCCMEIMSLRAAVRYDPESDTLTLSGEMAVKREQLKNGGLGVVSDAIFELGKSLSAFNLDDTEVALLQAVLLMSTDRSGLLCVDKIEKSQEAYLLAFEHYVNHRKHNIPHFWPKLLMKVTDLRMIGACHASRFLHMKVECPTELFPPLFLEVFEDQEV
Description: as §1, with “The EC50 of T3 measured were within 3-fold of the reference value provided by the assay kit manufacturer (ThermoFisher Scientific).” left out, “Compounds' THR-beta selectivity values are derived from T3-selectivity normalized data.” left out

THRβ-Selectivity (TR beta-LBD)	EC50 (TR beta-LBD)	EC50 (TR alpha-LBD)	Structure (SMILES)
57.5	0.0337 µM	0.492 µM	O=C(Nc1cc(Cl)c(Oc2n[nH]c(=O)c3ccccc23)c(Cl)c1)c1noc(=O)[nH]1 [Example 1, N-(3,5-dichloro-4-((4-oxo-3,4-dihydrophthalazin-1-yl)oxy)phenyl)-5-oxo-4,5-dihydro-1,2,4-oxadiazole-3-carboxamide]
10.9	0.0055 µM	0.0405 µM	Cn1nc(Oc2c(Cl)cc(NC(=O)c3noc(=O)[nH]3)cc2Cl)c2ccccc2c1=O [Example 2, N-(3,5-dichloro-4-((3-methyl-4-oxo-3,4-dihydrophthalazin-1-yl)oxy)phenyl)-5-oxo-4,5-dihydro-1,2,4-oxadiazole-3-carboxamide]
